{"source": "patent US8431596B2", "about": "(Cancer Research Technology Limited, priority 2007, dated 2013)", "biological_target": "T1, AXL (human catalytic domain) (Homo sapiens, UniProt P30530)", "T1 construct": "purchased Upstate Ltd. 14-512", "T1 sequence (P30530 473-894)": "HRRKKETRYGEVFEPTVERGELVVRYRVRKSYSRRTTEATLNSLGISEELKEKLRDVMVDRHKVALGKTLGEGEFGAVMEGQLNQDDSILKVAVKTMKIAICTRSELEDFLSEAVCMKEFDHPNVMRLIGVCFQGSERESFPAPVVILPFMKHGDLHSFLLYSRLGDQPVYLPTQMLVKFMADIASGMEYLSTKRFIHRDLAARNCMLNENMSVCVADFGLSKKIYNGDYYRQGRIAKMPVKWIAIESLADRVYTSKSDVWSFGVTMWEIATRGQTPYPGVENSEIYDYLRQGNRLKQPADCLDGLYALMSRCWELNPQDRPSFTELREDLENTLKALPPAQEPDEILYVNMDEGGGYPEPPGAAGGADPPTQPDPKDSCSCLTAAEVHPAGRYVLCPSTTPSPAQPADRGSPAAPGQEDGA", "assay": "AXL (human catalytic domain) Enzyme Activity Assay (IMAP fluorescence polarisation)", "assay_type": "biochemical", "details": "further data set (WW-001 through WW-169, XX-001 through XX-469, YY-001 through YY-016, ZZ-001 through ZZ-003); 150 μM ATP", "procedure,_shortened": "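Recombinant human AXL isoform 1 (aa473-894; final 15 nM) phosphorylated 100 nM fluorescein-CSK-tide with 150 μM ATP (KM) in HEPES pH 7.0/MgCl2/DTT buffer for 60 min at room temperature. IMAP fluorescence polarisation read after overnight binding; IC50 from 10-point 4-parameter logistic fits.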", "note": "pIC50: −log10 of the molar value.", "data": [{"smiles": "COc1ccc(-c2cccc3nc(Nc4ccc(C(=O)NCCN5CCCC5)s4)nn23)cc1", "note": "[XX-409]", "values": [{"measurement": "pIC50", "result": "6.00 to 7.00"}]}, {"smiles": "COc1ccc(-c2cccc3nc(Nc4ccc(OCC(O)CN5CCOCC5)cc4)nn23)cc1", "note": "(centres unmarked) [XX-410]", "values": [{"measurement": "pIC50", "result": "6.00 to 7.00"}]}, {"smiles": "COc1ccc(-c2cccc3nc(Nc4ccc(OC[C@@H](c5ccccc5)N5CCCC5)cc4)nn23)cc1", "note": "[XX-411]", "values": [{"measurement": "pIC50", "result": "6.00 to 7.00"}]}, {"smiles": "CCN(CC)CCOc1ccc(Nc2nc3cccc(-c4ccc(OC)cc4)n3n2)cc1F", "note": "[XX-412]", "values": [{"measurement": "pIC50", "result": "5.00 to 6.00"}]}, {"smiles": "COc1ccc(-c2cccc3nc(Nc4ccc(OC[C@H](c5ccccc5)N5CCCC5)cc4)nn23)cc1", "note": "[XX-413]", "values": [{"measurement": "pIC50", "result": "6.00 to 7.00"}]}, {"smiles": "CC[C@H](COc1ccc(Nc2nc3cccc(-c4ccc(OC)cc4)n3n2)cc1)N1CCCC1", "note": "[XX-414]", "values": [{"measurement": "pIC50", "result": "≥ 7.00"}]}, {"smiles": "CCN(CC)CCOc1cc(Nc2nc3cccc(-c4ccc(OC)cc4)n3n2)ccc1C", "note": "[XX-415]", "values": [{"measurement": "pIC50", "result": "6.00 to 7.00"}]}, {"smiles": "CCN(CC)CCOc1c(C)cc(Nc2nc3cccc(-c4ccc(OC)cc4)n3n2)cc1C", "note": "[XX-416]", "values": [{"measurement": "pIC50", "result": "≥ 7.00"}]}, {"smiles": "CCN(CC)CCOc1ccc(Nc2nc3cccc(-c4ccc(OC)cc4)n3n2)cc1Cl", "note": "[XX-417]", "values": [{"measurement": "pIC50", "result": "6.00 to 7.00"}]}, {"smiles": "CCN(CC)CCOc1cc(Nc2nc3cccc(-c4ccc(OC)cc4)n3n2)cc(F)c1F", "note": "[XX-418]", "values": [{"measurement": "pIC50", "result": "6.00 to 7.00"}]}, {"smiles": "c1cc(-c2ccc3c(c2)OCCO3)n2nc(Nc3ccc(OCCCN4CCCCC4)cc3)nc2c1", "note": "[XX-419]", "values": [{"measurement": "pIC50", "result": "6.00 to 7.00"}]}, {"smiles": "CC(C)Oc1ccc(-c2cccc3nc(Nc4ccc(OCCCN5CCCCC5)cc4)nn23)cc1", "note": "[XX-420]", "values": [{"measurement": "pIC50", "result": "6.00 to 7.00"}]}, {"smiles": "Cc1ccc(-c2cccc3nc(Nc4ccc(OCCCN5CCCCC5)cc4)nn23)cc1F", "note": "[XX-421]", "values": [{"measurement": "pIC50", "result": "6.00 to 7.00"}]}, {"smiles": "c1ccc2sc(-c3cccc4nc(Nc5ccc(OCCCN6CCCCC6)cc5)nn34)cc2c1", "note": "[XX-422]", "values": [{"measurement": "pIC50", "result": "6.00 to 7.00"}]}, {"smiles": "c1ccc(Cn2cc(-c3cccc4nc(Nc5ccc(OCCCN6CCCCC6)cc5)nn34)cn2)cc1", "note": "[XX-423]", "values": [{"measurement": "pIC50", "result": "6.00 to 7.00"}]}, {"smiles": "Cc1csc(SCCn2cc(-c3cccc4nc(Nc5ccc(OCCN6CCCC6)cc5)nn34)cn2)n1", "note": "[XX-424]", "values": [{"measurement": "pIC50", "result": "6.00 to 7.00"}]}, {"smiles": "c1cc(-c2cnn(CCSc3nccs3)c2)n2nc(Nc3ccc(OCCN4CCCC4)cc3)nc2c1", "note": "[XX-425]", "values": [{"measurement": "pIC50", "result": "6.00 to 7.00"}]}, {"smiles": "c1csc(SCCn2cc(-c3cccc4nc(Nc5ccc(OCCN6CCCC6)cc5)nn34)cn2)c1", "note": "[XX-426]", "values": [{"measurement": "pIC50", "result": "6.00 to 7.00"}]}, {"smiles": "c1coc(CSCCn2cc(-c3cccc4nc(Nc5ccc(OCCN6CCCC6)cc5)nn34)cn2)c1", "note": "[XX-427]", "values": [{"measurement": "pIC50", "result": "6.00 to 7.00"}]}, {"smiles": "Cn1nnnc1SCCn1cc(-c2cccc3nc(Nc4ccc(OCCN5CCCC5)cc4)nn23)cn1", "note": "[XX-428]", "values": [{"measurement": "pIC50", "result": "5.00 to 6.00"}]}, {"smiles": "Cn1cnnc1SCCn1cc(-c2cccc3nc(Nc4ccc(OCCN5CCCC5)cc4)nn23)cn1", "note": "[XX-429]", "values": [{"measurement": "pIC50", "result": "6.00 to 7.00"}]}, {"smiles": "Cc1nnc(SCCn2cc(-c3cccc4nc(Nc5ccc(OCCN6CCCC6)cc5)nn34)cn2)s1", "note": "[XX-430]", "values": [{"measurement": "pIC50", "result": "6.00 to 7.00"}]}, {"smiles": "Clc1cccc(SCCn2cc(-c3cccc4nc(Nc5ccc(OCCN6CCCC6)cc5)nn34)cn2)c1", "note": "[XX-431]", "values": [{"measurement": "pIC50", "result": "6.00 to 7.00"}]}, {"smiles": "O=C(Cn1cc(-c2cccc3nc(Nc4ccc(OCCN5CCCC5)cc4)nn23)cn1)Nc1ccccc1", "note": "[XX-432]", "values": [{"measurement": "pIC50", "result": "6.00 to 7.00"}]}, {"smiles": "O=C(Cn1cc(-c2cccc3nc(Nc4ccc(OCCN5CCCC5)cc4)nn23)cn1)NCc1ccccc1", "note": "[XX-433]", "values": [{"measurement": "pIC50", "result": "6.00 to 7.00"}]}, {"smiles": "CC(C)NC(=O)Cn1cc(-c2cccc3nc(Nc4ccc(OCCN5CCCC5)cc4)nn23)cn1", "note": "[XX-434]", "values": [{"measurement": "pIC50", "result": "5.00 to 6.00"}]}, {"smiles": "O=C(Cn1cc(-c2cccc3nc(Nc4ccc(OCCN5CCCC5)cc4)nn23)cn1)Nc1cccc(Cl)c1", "note": "[XX-435]", "values": [{"measurement": "pIC50", "result": "6.00 to 7.00"}]}, {"smiles": "O=C(Cn1cc(-c2cccc3nc(Nc4ccc(OCCN5CCCC5)cc4)nn23)cn1)NCCO", "note": "[XX-436]", "values": [{"measurement": "pIC50", "result": "6.00 to 7.00"}]}, {"smiles": "O=C(Cn1cc(-c2cccc3nc(Nc4ccc(OCCN5CCCC5)cc4)nn23)cn1)NC1CC1", "note": "[XX-437]", "values": [{"measurement": "pIC50", "result": "5.00 to 6.00"}]}, {"smiles": "Cc1c(-c2cccc3nc(Nc4ccc(OCCN5CCCC5)cc4)nn23)cnn1-c1ccccc1", "note": "[XX-438]", "values": [{"measurement": "pIC50", "result": "6.00 to 7.00"}]}, {"smiles": "Cn1ccc2cc(-c3cccc4nc(Nc5ccc(OCCN6CCCC6)cc5)nn34)ccc21", "note": "[XX-439]", "values": [{"measurement": "pIC50", "result": "6.00 to 7.00"}]}, {"smiles": "O=C(O)Cn1cc(-c2cccc3nc(Nc4ccc(OCCN5CCCC5)cc4)nn23)cn1", "note": "[XX-440, (4-{2-[4-(2-Pyrrolidin-1-yl-ethoxy)-phenylamino]-[1,2,4]triazolo[1,5-a]pyridin-5-yl}-pyrazol-1-yl)-acetic acid]", "values": [{"measurement": "pIC50", "result": "5.00 to 6.00"}]}]}
